Results as given in patent US20180148470A1, “CHOLIC ACID DERIVATIVE, AND PREPARATION METHOD AND MEDICAL USE THEREOF” (Jiangsu Hansoh Pharmaceutical Group Co., Ltd., priority 2015, published 2018).

How the values were obtained:
FXR = target: T1, FXR (Homo sapiens, UniProt Q96RI1); test: FXR reporter gene expression test (dual luciferase, FXR Gal4 reporter in HepG2 cells); assay type: cell-based; conditions: HepG2 cells transiently transfected with FXR Gal4 reporter, 18 hours
T1 sequence (Q96RI1 262-486 limits assumed): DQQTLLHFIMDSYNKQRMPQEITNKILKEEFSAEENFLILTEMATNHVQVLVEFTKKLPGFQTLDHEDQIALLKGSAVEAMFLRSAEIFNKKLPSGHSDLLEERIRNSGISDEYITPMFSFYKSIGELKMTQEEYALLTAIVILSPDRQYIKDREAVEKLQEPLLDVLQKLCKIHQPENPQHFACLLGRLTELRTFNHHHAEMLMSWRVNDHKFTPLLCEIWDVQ
Source text: FXR Reporter Gene Expression Test
To analyze the effect of testing compounds on FXR-regulated gene expression, we used Promega's dual luciferase assay system (Promega #E1980) to detect the effect of the compounds on the FXR reporter gene in HepG2 hepatoma cell line (ATCC #HB-8065), which was transiently transfected with the FXR Gal4 reporter gene fragment. Specific experimental methods are as follows:
1. HepG2 Cell Culture and Maintenance
Cells were digested and cells with appropriate density were grown in 10 mL complete medium and then cultivated for 24 hours under 37° C., 5% CO2 humidity conditions.
2. Cell planting and transfection. Transfection reagent was Fugene HD (Promega#E231A)
(1) The transfection mixture was prepared according to the following table
(2) The mixture in the tube was vigorously mixed and incubated at room temperature for 15 minutes;
(3) The cells were digested in the culture dish and counted;
(4) The cell suspension was diluted to the desired volume of 600,000/mL (96-well plates 100 μL/well);
(5) The required volume of the transfection mixture was added to the cell suspension, followed by plating at 100 μL/well;
(6) Incubated for 24 hours under 37° C., 5% CO2 humidity conditions.
3. Treatment of the Compound
(1) 10 mM of mother liquor of the compound was prepared and then serially diluted 3 times with DMSO;
(2) 10 μL of compound was added to 90 μL of complete medium (10×);
(3) 5 μL of the solution of the compound (21×) was added to each well;
(4) Incubated for 18 hours under 37° C., 5% CO2 humidity conditions.
The firefly luciferase and the renilla luciferase signal (Promega #E1980) were detected by Promega's dual-luciferase assay system.
(2) Calculating the agonist rate
Agonist rate=(X−Min)/(Max−Min)*100% • X represents the F/R value of each concentration; • Min represents the F/R value without adding compound; • Max represents the F/R value of the reference compound.
(3) EC50 was calculated according to GraphPrism 5.0

FXR receptor = target: T2, FXR receptor (Homo sapiens, UniProt Q96RI1); test: FXR receptor binding activity assay (TR-FRET; GST-FXR-LBD / SRC1 fragment); assay type: biochemical; conditions: FXR-LBD binding to SRC1 fragment, agonist rate
T2 construct: Prepared 2× GST-labeled FXR-LBD/anti-GST Eu mixture to the required volume, the concentration of GST-FXR-LBD was 6 nM; purchased Life Technology Invitrogen PV4835
T2 sequence (Q96RI1 262-486 limits assumed): T1 sequence (Q96RI1 262-486 limits assumed)
T2 sequence (Q15788 676-700 partner limits assumed): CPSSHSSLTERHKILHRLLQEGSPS
Source text: FXR Receptor Binding Activity Assay (Time-Resolved Fluorescence Detection Method TR-FRET Method)
To test the effect of the present compounds on FXR receptor binding, we selected the commercial FXR receptor binding activity assay kit to test the effect of the compounds on FXR and its binding protein fragments (LBD structural domain binds to SRC1 fragment) (kit supplier: Life Technology Invitrogen Catalog: PV4835; cisbio Catalog: 610SAXLA and 61GSTKLA). Specific method was described in the kit instructions. The operation was as follows:
1. Prepared 2× GST-labeled FXR-LBD/anti-GST Eu mixture to the required volume, the concentration of GST-FXR-LBD was 6 nM, Eu was 50 nL/well.
2. Prepared 2× biotin-labeled SRC1/[…] (SA-APC) mixture to the required volume, the concentration of SRC1 was 1000 nM, and […] was 50 nL/well.
3. 2× GST-FXR/Eu and SRC1/SA-APC were mixed in a proportion of 1:1.
4. 20 μL of a mixture of GST-FXR/Eu and SRC1/SA-APC was added to a 384-well plate containing the compounds to be tested.
5. Centrifuged for 1 minute at 1000 rpm; incubated for 180 minutes at room temperature.
6. Time-resolved fluorescence detection: EnVision reader.
(1) the value at 665 nm divided by the value at 615 nm;
(2) calculating the agonist rate
Agonist rate=(X−Min)/(Max−Min)*100% • X represents the 665/615 value for each concentration; • Min represents the 665/615 value without adding compound; • Max represents the 665/615 value of the reference compound.

Row | Compound | EC50 (FXR) | EC50 (FXR receptor)
1 | CC[C@H]1[C@@H](O)C2C3CCC([C@H](C)CCC(=O)NOCCO)[C@@]3(C)CCC2[C@@]2(C)CC[C@@H](O)C[C@@H]12 (stereo partly drawn) [Example 8, (4R)-4-((3R, 5S, 6R, 7R, 10S, 13R)-6-ethyl-3,7-dihydroxy-10,13-dimethylhexadecahydro-1H-cyclopenta[a]phenanthrene-17-yl)-N-(2-hydroxyethoxy)pentanamide] | 3370 nM | 228 nM
2 | CC[C@H]1[C@@H](O)C2C3CCC([C@H](C)CCC(=O)NCP(=O)(O)O)[C@@]3(C)CCC2[C@@]2(C)CC[C@@H](O)C[C@@H]12 (stereo partly drawn) [Example 6, (((4R)-4-((3R,5S,6R,7R,10S,13R)-6-ethyl-3,7-dihydroxy-10,13-dimethylhexadecahydro-1H-cyclopenta[a]phenanthrene-17-yl)pentanoylamino)methyl)phosphonic acid] |  | 1270 nM
3 | CC[C@H]1[C@@H](O)C2C3CCC([C@H](C)CCC(=O)NC#N)[C@@]3(C)CCC2[C@@]2(C)CC[C@@H](O)C[C@@H]12 (stereo partly drawn) [Example 3, (4R)-N-cyano-4-((3R, 5S, 6R, 7R, 10S, 13R)-6-ethyl-3,7-dihydroxy-10,13-dimethylhexadecahydro-1H-cyclopenta[a]phenanthrene-17-yl)pentanamide] | 2530 nM | 16 nM
4 | CC[C@H]1[C@@H](O)C2C3CCC([C@H](C)CCC(=O)NCCP(=O)(O)O)[C@@]3(C)CCC2[C@@]2(C)CC[C@@H](O)C[C@@H]12 (stereo partly drawn) [Example 7, (2-((4R)-4-((3R,5 S,6R,7R,10S,13R)-6-ethyl-3,7-dihydroxy-10,13-dimethylhexadecahydro-1H-cyclopenta[a]phenanthrene-17-yl)pentanoylamino)ethyl) phosphonic acid] |  | 552 nM
5 | CC[C@H]1[C@@H](O)C2C3CCC([C@H](C)CCc4noc(=O)[nH]4)[C@@]3(C)CCC2[C@@]2(C)CC[C@@H](O)C[C@@H]12 (stereo partly drawn) [Example 12, 3-((3R)-3-((3R, 5S, 6R, 7R, 10S, 13R)-6-ethyl-3,7-dihydroxy-10,13-dimethylhexadecahydro-1H-cyclopenta[a]phenanthrene-17-yl)butyl)-1,2,4-oxadiazol-5(4H)-one] | 1360 nM | 52 nM
6 | CC[C@H]1[C@@H](O)C2C3CCC([C@H](C)CCC(=O)NCS(=O)(=O)O)[C@@]3(C)CCC2[C@@]2(C)CC[C@@H](O)C[C@@H]12 (stereo partly drawn) [Example 5, ((4R)-4-((3R,5S,6R,7R,10S,13R)-6-ethyl-3,7-dihydroxy-10,13-dimethylhexadecahydro-1H-cyclopenta[a]phenanthrene-17-yl)pentanoylamino) methanesulfonic acid] |  | 31 nM
7 | CC[C@H]1[C@@H](O)C2C3CCC([C@H](C)CCC(=O)NOC)[C@@]3(C)CCC2[C@@]2(C)CC[C@@H](O)C[C@@H]12 (stereo partly drawn) [Example 4, (4R)-4-((3R,5S,6R,7R,10S,13R)-6-ethyl-3,7-dihydroxy-10,13-dimethylhexadecahydro-1H-cyclopenta[a]phenanthrene-17-yl)-N-methoxypentanamide] | 1060 nM | 54 nM
8 | CC[C@H]1[C@@H](O)C2C3CCC([C@H](C)CCC(=O)NO)[C@@]3(C)CCC2[C@@]2(C)CC[C@@H](O)C[C@@H]12 (stereo partly drawn) [Example 2, (4R)-4-((3R,5S,6R,7R,10S,13R)-6-ethyl-3,7-dihydroxy-10,13-dimethylhexadecahydro-1H-cyclopenta[a]phenanthrene-17-yl)-N-hydroxypentanamide] | 3390 nM | 167 nM
9 | CCOC(=O)c1nnc(CC[C@@H](C)C2CCC3C4C(CC[C@@]32C)[C@@]2(C)CC[C@@H](O)C[C@H]2[C@@H](CC)[C@H]4O)o1 (stereo partly drawn) [Example 13-ii] |  | 70 nM
10 | C[C@H](CC1SC(=O)NC1=O)C1CCC2C3C(CC[C@@]21C)[C@@]1(C)CC[C@@H](O)C[C@H]1C[C@H]3O (stereo partly drawn) [Example 15-β, 5-((2R)-2-((3R,5 S,7R,10S,13R)-3,7-dihydroxy-10,13-dimethylhexadecahydro-1H-cyclopenta[a]phenanthrene-17-yl)propyl)thiazolidine-2,4-dione] | 3370 nM | 312 nM
11 | CC[C@H]1[C@@H](O)C2C3CCC([C@H](C)CCc4nnc[nH]4)[C@@]3(C)CCC2[C@@]2(C)CC[C@@H](O)C[C@@H]12 (stereo partly drawn) [Example 11, (3R,5S,6R,7R,10S,13R)-17-((R)-4-(4H-1,2,4-triazol-3-yl)butan-2-yl)-6-ethyl-10,13-dimethylhexadecahydro-1H-cyclopenta[a] phenanthrene-3,7-diphenol] | 5200 nM | 366 nM
12 | CC[C@H]1[C@@H](O)C2C3CCC([C@H](C)CC4SC(=O)NC4=O)[C@@]3(C)CCC2[C@@]2(C)CC[C@@H](O)C[C@@H]12 (single isomer, unassigned) [Example 14-α] | 63 nM | 13 nM
13 | CC[C@H]1[C@@H](O)C2C3CCC([C@H](C)CCc4nnc(C(=O)O)o4)[C@@]3(C)CCC2[C@@]2(C)CC[C@@H](O)C[C@@H]12 (stereo partly drawn) [Example 13, 5-((3R)-3-((3R, 5S, 6R, 7R, 10S,13R)-6-ethyl-3,7-dihydroxy-10,13-dimethylhexadecahydro-1H-cyclopenta[a]phenanthrene-17-yl)butyl) -1,3,4-oxadiazole-2-carboxylic acid] | 5200 nM | 283 nM
14 | CC[C@H]1[C@@H](O)C2C3CCC([C@H](C)CCc4n[nH]c(=O)o4)[C@@]3(C)CCC2[C@@]2(C)CC[C@@H](O)C[C@@H]12 (stereo partly drawn) [Example 10, 5-((3R)-3-((3R,5S,6R,7R,10S,13R)-6-ethyl-3,7-dihydroxy-10,13-dimethylhexadecane-1H-cyclopenta[a]phenanthrene-17-yl)butyl)-1,3,4-oxadiazol-2 (3H) -one] | 1400 nM | 61 nM
15 | CC[C@@H]1[C@@H]2[C@@H](F)[C@H](O)CC[C@]2(C)C2CC[C@@]3(C)C(CCC3[C@H](C)CCC(=O)O)C2[C@@H]1O (stereo partly drawn) [Example 1, (4R)-4-((3R, 4R, 5S, 6R, 7R, 10R, 13R)-6-ethyl-4-fluoro-3,7-dihydroxy-10,13-dimethylhexadecahydro-1H-cyclopenta[a]phenanthrene-17-yl)pentanoic acid] | 2600 nM | 214 nM
16 | C[C@H](CC1SC(=O)NC1=O)C1CCC2C3C(CC[C@@]21C)[C@@]1(C)CC[C@@H](O)C[C@H]1C[C@H]3O (stereo partly drawn) [Example 15-α, 5-((2R)-2-((3R,5 S,7R,10S,13R)-3,7-dihydroxy-10,13-dimethylhexadecahydro-1H-cyclopenta[a]phenanthrene-17-yl)propyl)thiazolidine-2,4-dione] |  | 143 nM
